A short description of data set [1]: physical stability evaluation of solutions (microscope, drug crystals). The data set is classed as physicochemical. To be noted: PEG 400, room temperature and 4° C. As to the method: The solutions then were allowed to cool to room temperature (RT). A portion of each solution was mixed with water (8 mg water per 100 mg solution) to mimic the water migration and retention processes occurring in a soft capsule. The solutions (with and without water) were stored at RT (room temperature) and at 4° C. for physical stability evaluation.

The nature of data set [2]: bioavailability of Compound A. As to conditions: in vivo.

The values that follow come from patent US6841167B1, “β-carboline pharmaceutical compositions” (Lilly Icos LLC., priority 1999, dated 2005).

Bounds are passed on as bounds.

For the molecule `CN1CC(=O)N2[C@H](c3ccc4c(c3)OCO4)c3[nH]c4ccccc4c3C[C@@H]2C1=O` (relative stereo) [Compound A, (6R-trans)-6-(1,3-benzodioxol-5-yl)-2,3,6,7,12,12a-hexahydro-2-methylpyrazino-[1′, 2′:1, ]pyrido[3,4-b]indole-1,4-dione], in data set [1], the “drug concentration at which PEG 400 solution formulation is physically stable with respect to drug crystallization” value is ≤ 2.8%. Further, in data set [2], the bioavailability result was “low and inconsistent bioavailability”.
